Source: PubChem BioAssay (NCI)
Where “and” joins values, the source holds several entries; their conditions need not be identical. Equal values may be shown once.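 Grown in 96-well plates, cells were treated for 48 hours with each compound at five concentrations. Insufficient inhibition: endpoint recorded as highest concentration tested. The concentration for 50% growth inhibition is given as GI50. Definition used: TGI = concentration required for complete inhibition of growth.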 Starred links: 1 amine or outer side, 2 acyl side, 3 side chain; linkers in the order of their positions; H or OH if unused. Non-standard residues stand in square brackets, D forms with d. Residues, ends and D or L forms follow the SMILES beside them. *: point of attachment. X14 = C/C=C/CC(C)C(O)[C@H](N[*:1])C(=O)[*:2]; Decanoyl = CCCCCCCCCC(=O)*; Leu(ol) = CC(C)C[C@H](N)CO; Iva = CC[C@](C)(N)C(=O)O; Aib = CC(C)(N)C(=O)O

Each compound was assayed on MDA-MB-468 breast (assay: growth of human tumour cells (NCI), 48 h).

First: O=Cc1ccc(-c2ccc(-c3ccc(C=O)o3)[se]2)o1
Second: NC(=N\N=C/c1ccc(Cl)cc1Cl)/C(N)=N\N=C/c1ccc(Cl)cc1Cl
The GI50 of the first is 3.3-fold higher: 22600 nM for the first, 6870 nM for the second.

Going from `O=C1NC(=O)C(c2ccccc2)=C1Nc1ccccc1` to `c1ccc(-c2cn(-c3ccccc3)c(-c3ccccc3)n2)cc1`, the GI50 falls from greater than 25000 nM to 10100 nM.

`COc1cc2c(cc1OCCCCn1c(-c3cccs3)nc3ccccc31)N=C[C@@H]1CCCN1C2=O` and `COc1cc(/C=C/C(=O)c2c(C)nc3ccccc3c2C)ccc1OCCCCOc1cc2c(cc1OC)C(=O)N1CCC[C@H]1C=N2` are within 1.5-fold of each other in GI50: 333 nM for the first, 235 nM for the second.

First: O=C(O)c1ccc(C(=O)O)c(C(=O)O)c1.[NH-]C1CCCCC1[NH-].[Pt+2]
Second: CCC(C)(C)[C@H](NC(=O)[C@H]1CCCCN1C)C(=O)N(C)[C@H](C[C@@H](OC(C)=O)c1nc(C(=O)N[C@@H](Cc2ccccc2)C[C@H](C)C(=O)O)cs1)C(C)C
The GI50 of the first is higher: 35700 nM for the first, less than 1.67 nM for the second.

Compared with `CN(CSc1ccc(Cl)cc1)c1ccc(CSc2ccc(Cl)cc2)cc1`, `Oc1ccc(Cc2ccc(O)c(C3CC(c4ccc(Cl)cc4)=NN3)c2)cc1C1CC(c2ccc(Cl)cc2)=NN1` (centres undefined) is 1.5-fold higher in GI50: 1850 nM for the first, 2850 nM for the second.

Compared with `CCC(C)CC(C)C(=O)c1c(O)ccn(O)c1=O` (centres undefined), `CCN1C(=O)N(CC)C2C1NC(=S)N2/N=C/C=C/c1ccccc1OC` (centres undefined) is 59-fold lower in GI50: 2100 nM for the first, 35.3 nM for the second.

First: Cc1[nH]c(C(=O)Nc2ccc(S(=O)(=O)N3CCCCC3)cc2OCCOCCOCCOCCOCCOCCOCCOCCOCCOc2cc(S(=O)(=O)N3CCCCC3)ccc2NC(=O)c2[nH]c(C)c3c2CCCCC3=O)c2c1C(=O)CCCC2
Second: O=C(NS(=O)(=O)c1ccc(NC[C@H]2COCCO2)c([N+](=O)[O-])c1)c1ccc(N2CCN(CC3=C(c4ccc(Cl)cc4)CC4(CCC4)CC3)CC2)cc1Oc1cnc2[nH]ccc2c1
The GI50 of the first is 9.4-fold lower: 191 nM for the first, 1790 nM for the second.

`N#C/C(=C\c1ccc(F)cc1)n1nc2cccc(F)c2n1` and `O=C(Nc1ccc(I)cc1)c1cccc([N+](=O)[O-])c1O` are within 1.5-fold of each other in GI50: 3050 nM for the first, 2070 nM for the second.

First: FC(F)(F)c1ccc(-c2ncc(-c3ccc(C(F)(F)F)cc3)c(NCc3cc(C(F)(F)F)cc(C(F)(F)F)c3)n2)cc1
Second: FC(F)(F)c1cc(-c2ncn(/C=C\c3nnco3)n2)cc(C(F)(F)F)c1
The GI50 of the first is 37-fold higher: 3200 nM for the first, 85.4 nM for the second.

First: O=c1[nH]c(F)nc2c1ncn2C1OC(CO)C(O)C1O (centres undefined)
Second: NC(=O)CCc1ccccc1Oc1nccc(-c2c(-c3ccc(F)cc3)ncn2C2CCNCC2)n1
The GI50 of the first is higher: greater than 100000 nM for the first, 10000 nM for the second.

`O=C1c2cccnc2C(=O)c2c1c(C(=O)OCCc1ccccn1)c1ccccn21` and `O=C1/C(=C\c2ccccc2)CN(C(=O)c2ccccc2)C/C1=C\c1ccccc1` are within 1.5-fold of each other in GI50: 1840 nM for the first, 1690 nM for the second.

Going from `CCCOc1ccc(/C=N/Nc2cc(C)nc3ccc(Cl)cc23)cc1` to `NCCCNc1nc2ccc(Cl)cc2c2c(=O)c3cc(F)ccc3sc12`, the GI50 rises from 1690 nM to 2900 nM (1.7-fold).

Compared with `CCOC(=O)[C@@H](C)C[C@H](Cc1ccccc1)NC(=O)c1csc([C@@H](C[C@H](C(C)C)N(C)C(=O)[C@@H](NC(=O)[C@H]2C[C@H](O)CCN2C)C(C)C)OC(C)=O)n1`, `C/C=C/CC(C)C(O)[C@H](NC(=O)[C@@H]1CCCN1C(=O)C(C)(C)NC(=O)CCCCCCCCC)C(=O)N[C@@](C)(CC)C(=O)N[C@@H](CCC(N)=O)C(=O)N[C@H](CCC(N)=O)C(=O)NC(C)(C)C(=O)N[C@@](C)(CC)C(=O)N[C@@H](CCC(N)=O)C(=O)N[C@H](CC(C)C)C(=O)N[C@H](CO)CC(C)C` (stereo partly drawn) (Decanoyl-[Aib]P[X14][Iva]Q[dQ][Aib][Iva]Q[dL][Leu(ol)]) is higher in GI50: less than 1.67 nM for the first, 32.9 nM for the second.

Compared with `COc1ncc(-c2ccc3nccc(C#CCN4CCN(S(C)(=O)=O)CC4)c3c2)cc1NS(=O)(=O)c1ccc(F)cc1F`, `CC(C)OCc1cc(CN2CCN(c3cccc(Cl)c3)CC2)c(O)c2ncccc12` is 17-fold higher in GI50: 19.8 nM for the first, 346 nM for the second.

First: O=C(/C=C/c1cccc(S(=O)(=O)Nc2ccccc2)c1)NO
Second: O=C(Cc1ccc(Nc2ccnc(C(F)(F)F)c2)cc1)N/N=C/c1ccccc1O
The GI50 of the first is 12-fold lower: 241 nM for the first, 3000 nM for the second.

`Cc1cc(C(O)(c2ccc(Nc3ccccc3)cc2)c2ccc(Nc3ccc(S(=O)(=O)O)cc3)cc2)ccc1N` (centres undefined) and `Brc1ccc(Nc2nc3ccccc3nc2Nc2ccc(Br)cc2)cc1` are within 1.5-fold of each other in GI50: 480 nM for the first, 365 nM for the second.

Compared with `COc1ccc(C2CC(c3ccc4ccccc4c3)=NN2c2nc(O)c(C3=c4cc(OC)ccc4=NC3=O)s2)cc1` (centres undefined), `CN1CCN(c2ccc(Nc3nc(NCCNS(=O)(=O)c4ccc5ccccc5c4)c4sccc4n3)cc2)CC1` is 61-fold higher in GI50: 46.2 nM for the first, 2830 nM for the second.

Compared with `CCCCCCc1cc2cc(-c3csc(/C=C/c4ccccc4)n3)c(=O)oc2cc1O`, `CCCCN(CC)CCCCCCCCCCN1CCCc2cc(OC)ccc21` is 3.8-fold lower in GI50: 6100 nM for the first, 1590 nM for the second.

`O=Cc1ccc(-c2ccc(-c3ccc(C=O)o3)[se]2)o1` and `NC(=N\N=C/c1ccc(Cl)cc1Cl)/C(N)=N\N=C/c1ccc(Cl)cc1Cl` cannot be ordered by TGI: greater than 100000 nM for the first, greater than 100000 nM for the second.

`O=C1NC(=O)C(c2ccccc2)=C1Nc1ccccc1` and `c1ccc(-c2cn(-c3ccccc3)c(-c3ccccc3)n2)cc1` cannot be ordered by TGI: greater than 25000 nM for the first, 30500 nM for the second.

First: COc1cc2c(cc1OCCCCn1c(-c3cccs3)nc3ccccc31)N=C[C@@H]1CCCN1C2=O
Second: COc1cc(/C=C/C(=O)c2c(C)nc3ccccc3c2C)ccc1OCCCCOc1cc2c(cc1OC)C(=O)N1CCC[C@H]1C=N2
The TGI of the first is 2.6-fold higher: 1600 nM for the first, 625 nM for the second.

Compared with `O=C(O)c1ccc(C(=O)O)c(C(=O)O)c1.[NH-]C1CCCCC1[NH-].[Pt+2]`, `CCC(C)(C)[C@H](NC(=O)[C@H]1CCCCN1C)C(=O)N(C)[C@H](C[C@@H](OC(C)=O)c1nc(C(=O)N[C@@H](Cc2ccccc2)C[C@H](C)C(=O)O)cs1)C(C)C` is lower in TGI: greater than 100000 nM for the first, less than 1.67 nM for the second.

Compared with `CN(CSc1ccc(Cl)cc1)c1ccc(CSc2ccc(Cl)cc2)cc1`, `Oc1ccc(Cc2ccc(O)c(C3CC(c4ccc(Cl)cc4)=NN3)c2)cc1C1CC(c2ccc(Cl)cc2)=NN1` (centres undefined) is 1.9-fold higher in TGI: 5070 nM for the first, 9440 nM for the second.

Compared with `CCC(C)CC(C)C(=O)c1c(O)ccn(O)c1=O` (centres undefined), `CCN1C(=O)N(CC)C2C1NC(=S)N2/N=C/C=C/c1ccccc1OC` (centres undefined) is 4.1-fold higher in TGI: 9470 nM for the first, 38900 nM for the second.

First: Cc1[nH]c(C(=O)Nc2ccc(S(=O)(=O)N3CCCCC3)cc2OCCOCCOCCOCCOCCOCCOCCOCCOCCOc2cc(S(=O)(=O)N3CCCCC3)ccc2NC(=O)c2[nH]c(C)c3c2CCCCC3=O)c2c1C(=O)CCCC2
Second: O=C(NS(=O)(=O)c1ccc(NC[C@H]2COCCO2)c([N+](=O)[O-])c1)c1ccc(N2CCN(CC3=C(c4ccc(Cl)cc4)CC4(CCC4)CC3)CC2)cc1Oc1cnc2[nH]ccc2c1
The TGI of the first is 5.5-fold lower: 794 nM for the first, 4350 nM for the second.

First: N#C/C(=C\c1ccc(F)cc1)n1nc2cccc(F)c2n1
Second: O=C(Nc1ccc(I)cc1)c1cccc([N+](=O)[O-])c1O
The TGI of the first is higher: greater than 100000 nM for the first, 7400 nM for the second.

Compared with `FC(F)(F)c1ccc(-c2ncc(-c3ccc(C(F)(F)F)cc3)c(NCc3cc(C(F)(F)F)cc(C(F)(F)F)c3)n2)cc1`, `FC(F)(F)c1cc(-c2ncn(/C=C\c3nnco3)n2)cc(C(F)(F)F)c1` is 21-fold lower in TGI: 15500 nM for the first, 740 nM for the second.

`O=c1[nH]c(F)nc2c1ncn2C1OC(CO)C(O)C1O` (centres undefined) and `NC(=O)CCc1ccccc1Oc1nccc(-c2c(-c3ccc(F)cc3)ncn2C2CCNCC2)n1` cannot be ordered by TGI: greater than 100000 nM for the first, greater than 25000 nM for the second.

`O=C1c2cccnc2C(=O)c2c1c(C(=O)OCCc1ccccn1)c1ccccn21` and `O=C1/C(=C\c2ccccc2)CN(C(=O)c2ccccc2)C/C1=C\c1ccccc1` are within 1.5-fold of each other in TGI: 5060 nM for the first, 3560 nM for the second.

First: CCCOc1ccc(/C=N/Nc2cc(C)nc3ccc(Cl)cc23)cc1
Second: NCCCNc1nc2ccc(Cl)cc2c2c(=O)c3cc(F)ccc3sc12
The TGI of the first is 3.2-fold lower: 3190 nM for the first, 10100 nM for the second.

`CCOC(=O)[C@@H](C)C[C@H](Cc1ccccc1)NC(=O)c1csc([C@@H](C[C@H](C(C)C)N(C)C(=O)[C@@H](NC(=O)[C@H]2C[C@H](O)CCN2C)C(C)C)OC(C)=O)n1` and `COC(=O)[C@@H](C)C[C@H](Cc1ccccc1)NC(=O)c1csc([C@@H](C[C@H](C(C)C)N(C)C(=O)C2(NC(=O)[C@H]3CCCCN3C)CCC2)OC(C)=O)n1` cannot be ordered by TGI: greater than 16700 nM for the first, greater than 25000 nM for the second.

First: COc1ncc(-c2ccc3nccc(C#CCN4CCN(S(C)(=O)=O)CC4)c3c2)cc1NS(=O)(=O)c1ccc(F)cc1F
Second: CC(C)OCc1cc(CN2CCN(c3cccc(Cl)c3)CC2)c(O)c2ncccc12
The TGI of the first is 14-fold lower: 122 nM for the first, 1670 nM for the second.

First: C/C=C/CC(C)C(O)[C@H](NC(=O)[C@@H]1CCCN1C(=O)C(C)(C)NC(=O)CCCCCCCCC)C(=O)N[C@@](C)(CC)C(=O)N[C@@H](CCC(N)=O)C(=O)N[C@H](CCC(N)=O)C(=O)NC(C)(C)C(=O)N[C@@](C)(CC)C(=O)N[C@@H](CCC(N)=O)C(=O)N[C@H](CC(C)C)C(=O)N[C@H](CO)CC(C)C (stereo partly drawn) (Decanoyl-[Aib]P[X14][Iva]Q[dQ][Aib][Iva]Q[dL][Leu(ol)])
Second: CCCCN(CC)CCCCCCCCCCN1CCCc2cc(OC)ccc21
The TGI of the first is 14-fold lower: 260 nM for the first, 3580 nM for the second.

Compared with `O=C(/C=C/c1cccc(S(=O)(=O)Nc2ccccc2)c1)NO`, `O=C(Cc1ccc(Nc2ccnc(C(F)(F)F)c2)cc1)N/N=C/c1ccccc1O` is 7.3-fold higher in TGI: 5360 nM for the first, 39300 nM for the second.

`Cc1cc(C(O)(c2ccc(Nc3ccccc3)cc2)c2ccc(Nc3ccc(S(=O)(=O)O)cc3)cc2)ccc1N` (centres undefined) and `Brc1ccc(Nc2nc3ccccc3nc2Nc2ccc(Br)cc2)cc1` are within 1.5-fold of each other in TGI: 2480 nM for the first, 2580 nM for the second.

First: COc1ccc(C2CC(c3ccc4ccccc4c3)=NN2c2nc(O)c(C3=c4cc(OC)ccc4=NC3=O)s2)cc1 (centres undefined)
Second: CN1CCN(c2ccc(Nc3nc(NCCNS(=O)(=O)c4ccc5ccccc5c4)c4sccc4n3)cc2)CC1
The TGI of the first is 61-fold lower: 200 nM for the first, 12200 nM for the second.

With `CCCCCCc1cc2cc(-c3csc(/C=C/c4ccccc4)n3)c(=O)oc2cc1O` the TGI was 28700 nM.

For `COC(=O)[C@@H](C)C[C@H](Cc1ccccc1)NC(=O)c1csc([C@@H](C[C@H](C(C)C)N(C)C(=O)C2(NC(=O)[C@H]3CCCCN3C)CCC2)OC(C)=O)n1`, the GI50 was 1.23 nM and 2.5 nM.
